Experimental data as given in patent US6924302B2, “Substituted triazole diamine derivatives as kinase inhibitors” (Ortho McNeil Pharmaceutical, Inc., priority 2000, dated 2005).

Legend:
[1] = biological target: T1, VEGF-R (vascular endothelial growth factor receptor-2) (Rattus norvegicus, UniProt O08775); assay: VEGF-R Screening Assay; format: biochemical; settings: Table 1; read-out: VEGF-R IC50
T1 construct: polyhistidine (6xHIS) (N)
Protocol: (§1) 70 μL of the kinase reaction mixture was dispensed into the well of a streptavidin coated FlashPlate™ (Cat. # SMP103, NEN, Boston, Mass.). Then 1 μL of test compound stock in 100% DMSO was added to the wells resulting in a final concentration of 1% DMSO in the reaction with a 100 μL final reaction volume. Next, soluble rat tyrosine kinase containing an N-terminal 6×HIS tag was diluted in 50 mM Tris-HCl pH=8.0, 0.1% BSA at a concentration of 5 ng per μL and 30 μL (150 ng enzyme per test well) was added to each well to initiate the reaction. The reaction was incubated for one hour at 30° C. At the end of the 1-hour incubation, the reaction was terminated by aspirating the reaction mixture from the plate and washing the wells twice with PBS containing 100 mM EDTA. The PLC1 biotinylated peptide substrate became immobilized on the Flashplate™ and the incorporation of ^33P-γ-ATP was measured by reading the plate on a scintillation counter. Inhibition of the enzymatic activity of the VEGF-R was measured by observing a reduced amount of ^33P-γ-ATP incorporated into the immobilized peptide.
Assays to test compound inhibition of other kinases were preformed using methods that measure the amount of phosphorylation of a biotinylated peptide substrate. Biotinylated peptide substrates were selected from the literature as appropriate for the enzyme being evaluated. […] Assay conditions vary slightly for each protein kinase, for example, insulin receptor kinase requires 10 mM MnCl2 for activity and Calmodulin-dependent protein kinase requires calmodulin and 10 mM CaCl2. These assay conditions are known in the art. The reaction mixture was dispensed into the wells of a streptavidin coated Flashplate and 1 μl drug stock in 100% DMSO was added to a 100 μl reaction volume resulting in a final concentration of 1% DMSO on the reaction. Enzyme was diluted in 50 mM Tris-HCl pH=8.0, 0.1% BSA and add to each well. The reaction was incubated for one hour at 30° C. in the presence of compound. After one hour the reaction mix was aspirated from the plate and the plate was washed with PBS containing 100 mM EDTA. The plate was read on a scintillation counter to determine ^33P-γ-ATP incorporated into the immobilized peptide. Test compounds were assayed in duplicate at 8 concentrations [100 uM, 10 uM, 1 uM, 100 nM, 10 nM, 1 nM, 100 pM, 10 pM]. A maximum and minimum signal for the assay was determined on each plate. The IC50 was calculated from the dose response curve of the percent inhibition of the maximum signal in the assay according to the formula [max signal—background/test compound signal—background (100)=% inhibition] by graphing the percent inhibition against the log concentration of test compound. Known inhibitor compounds appropriate for the kinase being assayed were also included on each plate.
CDK2 in complex with cyclin A is commercially available (Upstate Biotech, Lake Placid, N.Y.). The CDK4 complex was composed of a mouse CDK4 protein and a mouse Cyclin D1 protein (The mouse CDK4 protein was genetically fused to an N-terminal Flag-epitope tag and the mouse Cyclin D1 protein was fused with an N-terminal AU-1 epitope tag. The genes encoding these proteins were transferred to commercially available baculoviral vectors. The recombinant CDK4/D1 complex was then made by co-infecting commercially available insect cells with viruses carrying these two constructs). […] ERK-1 protein (Discontinued from Calbiochem). EGFR (epidermal growth factor receptor) is purified from human A431 cell membranes (Sigma, St. Louis, Mo., Cat.# E3641).

CDK1:Cyclin-B = biological target: T2, CDK1:Cyclin-B (Homo sapiens, UniProt P06493); assay: CDK1 Screening Assay; format: biochemical; settings: Table 1; read-out: CDK1 IC50
T2 construct: purchased New England Biolabs 6020; host or cells: insect cells
Protocol: as §1, with “100 μl” for “100 μL”, “Next, CDK1:Cyclin-B protein” for “Next, soluble rat tyrosine kinase containing an N-terminal 6×HIS tag”, “of 1” for “of 5”, “30 μl (30” for “30 μL (150”, “The histone-H1” for “The PLC1”, “of CDK1” for “of the VEGF-R”
Assays to test compound inhibition of other kinases were preformed using methods that measure the amount of phosphorylation of a biotinylated peptide substrate. Biotinylated peptide substrates were selected from the literature as appropriate for the enzyme being evaluated. […] Assay conditions vary slightly for each protein kinase, for example, insulin receptor kinase requires 10 mM MnCl2 for activity and Calmodulin-dependent protein kinase requires calmodulin and 10 mM CaCl2. These assay conditions are known in the art. The reaction mixture was dispensed into the wells of a streptavidin coated Flashplate and 1 μl drug stock in 100% DMSO was added to a 100 μl reaction volume resulting in a final concentration of 1% DMSO on the reaction. Enzyme was diluted in 50 mM Tris-HCl pH=8.0, 0.1% BSA and add to each well. The reaction was incubated for one hour at 30° C. in the presence of compound. After one hour the reaction mix was aspirated from the plate and the plate was washed with PBS containing 100 mM EDTA. The plate was read on a scintillation counter to determine ^33P-γ-ATP incorporated into the immobilized peptide. Test compounds were assayed in duplicate at 8 concentrations [100 uM, 10 uM, 1 uM, 100 nM, 10 nM, 1 nM, 100 pM, 10 pM]. A maximum and minimum signal for the assay was determined on each plate. The IC50 was calculated from the dose response curve of the percent inhibition of the maximum signal in the assay according to the formula [max signal—background/test compound signal—background (100)=% inhibition] by graphing the percent inhibition against the log concentration of test compound. Known inhibitor compounds appropriate for the kinase being assayed were also included on each plate. […]

T1 sequence (O08775 786-1343): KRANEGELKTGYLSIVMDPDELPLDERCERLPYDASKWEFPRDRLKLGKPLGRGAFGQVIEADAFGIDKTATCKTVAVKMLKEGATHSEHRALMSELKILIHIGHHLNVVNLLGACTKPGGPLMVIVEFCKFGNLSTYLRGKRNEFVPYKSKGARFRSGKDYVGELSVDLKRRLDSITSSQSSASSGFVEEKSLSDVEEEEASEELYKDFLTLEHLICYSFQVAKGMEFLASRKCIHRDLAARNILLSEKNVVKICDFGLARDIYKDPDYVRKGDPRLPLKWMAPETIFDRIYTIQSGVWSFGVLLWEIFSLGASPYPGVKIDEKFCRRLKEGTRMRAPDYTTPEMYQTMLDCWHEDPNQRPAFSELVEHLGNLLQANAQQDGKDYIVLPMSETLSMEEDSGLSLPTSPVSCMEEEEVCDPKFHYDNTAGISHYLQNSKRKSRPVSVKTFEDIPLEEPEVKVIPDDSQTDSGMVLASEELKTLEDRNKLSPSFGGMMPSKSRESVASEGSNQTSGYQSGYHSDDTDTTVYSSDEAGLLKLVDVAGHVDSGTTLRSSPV
T2 sequence (P06493 whole entry): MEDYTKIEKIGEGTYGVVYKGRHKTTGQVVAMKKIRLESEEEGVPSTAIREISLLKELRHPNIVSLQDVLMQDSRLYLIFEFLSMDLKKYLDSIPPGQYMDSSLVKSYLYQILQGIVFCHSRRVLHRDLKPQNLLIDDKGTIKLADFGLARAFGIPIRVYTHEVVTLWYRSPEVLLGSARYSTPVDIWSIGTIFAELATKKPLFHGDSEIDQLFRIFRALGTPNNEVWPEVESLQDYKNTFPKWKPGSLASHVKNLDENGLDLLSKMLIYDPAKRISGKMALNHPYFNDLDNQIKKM
T2 sequence (P14635 whole entry partner): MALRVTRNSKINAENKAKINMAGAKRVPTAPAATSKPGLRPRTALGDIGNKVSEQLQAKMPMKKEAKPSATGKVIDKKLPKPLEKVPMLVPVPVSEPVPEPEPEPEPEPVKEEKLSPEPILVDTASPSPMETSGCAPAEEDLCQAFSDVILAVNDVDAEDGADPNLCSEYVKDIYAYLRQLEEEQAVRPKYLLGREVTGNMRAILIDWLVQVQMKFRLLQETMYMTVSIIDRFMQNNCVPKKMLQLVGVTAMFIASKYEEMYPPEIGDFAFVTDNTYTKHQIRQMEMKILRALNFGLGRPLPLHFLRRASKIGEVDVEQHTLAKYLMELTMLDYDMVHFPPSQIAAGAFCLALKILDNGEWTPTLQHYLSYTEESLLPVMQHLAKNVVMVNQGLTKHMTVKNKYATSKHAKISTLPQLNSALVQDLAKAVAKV

SMILES | IC50 [1] | IC50 (CDK1:Cyclin-B)
Nc1nc(Nc2ccc(S(N)(=O)=O)cc2)nn1C(=O)c1c(F)ccc(F)c1F [Cpd 3, 4-[[5-amino-1-(2,3,6-trifluorobenzoyl)-1H-1,2,4-triazol-3-yl]amino]-benzenesulfonamide] | 332 nM | 8 nM
Nc1nc(Nc2ccc(S(N)(=O)=O)cc2)nn1C(=O)c1ccccc1F [Cpd 4, 4-[[5-amino-1-(2-fluorobenzoyl)-1H-1,2,4-triazol-3-yl]amino]-benzenesulfonamide] | 387 nM | 22.3 nM
Nc1nc(Nc2ccc(S(N)(=O)=O)cc2)nn1C(=O)c1ccc(F)cc1F [Cpd 5, 4-[[5-amino-1-(2,4-difluorobenzoyl)-1H-1,2,4-triazol-3-yl]amino]-benzenesulfonamide] | 521 nM | 144 nM
Nc1nc(Nc2ccc(S(N)(=O)=O)cc2)nn1C(=O)c1c(F)cccc1C(F)(F)F [Cpd 6, 4-[[5-amino-1-[2-fluoro-6-(trifluoromethyl)benzoyl]-1H-1,2,4-triazol-3-yl]amino]-benzenesulfonamide] | 8140 nM | 39.4 nM
Nc1nc(Nc2ccc(S(N)(=O)=O)cc2)nn1C(=O)c1c(Cl)cccc1Cl [Cpd 7, 4-[[5-amino-1-(2,6-dichlorobenzoyl)-1H-1,2,4-triazol-3-yl]amino]-benzenesulfonamide] | > 10000 nM | 57 nM
Nc1nc(Nc2ccc(S(N)(=O)=O)cc2)nn1C(=O)c1c(Cl)cc(Cl)cc1Cl [Cpd 8, 4-[[5-amino-1-(2,4,6-trichlorobenzoyl)-1H-1,2,4-triazol-3-yl]amino]-benzenesulfonamide] | > 100000 nM | 136 nM
Nc1nc(Nc2ccc(S(N)(=O)=O)cc2)nn1C(=O)c1ccccc1 [Cpd 12, 4-[(5-amino-1-benzoyl-1H-1,2,4-triazol-3-yl)amino]-benzenesulfonamide] | 84.1 nM | 45.4 nM

Further lines, results first:

IC50 [1] | IC50 (CDK1:Cyclin-B) | SMILES
1600 nM | 39 nM | Nc1nc(Nc2ccc(S(N)(=O)=O)cc2)nn1C(=O)c1ccccc1[N+](=O)[O-] [Cpd 9, 4-[[5-amino-1-(2-nitrobenzoyl)-1H-1,2,4-triazol-3-yl]amino]-benzenesulfonamide]
491 nM | 252 nM | COc1cccc(OC)c1C(=O)n1nc(Nc2ccc(S(N)(=O)=O)cc2)nc1N [Cpd 10, 4-[[5-amino-1-(2,6-dimethoxybenzoyl)-1H-1,2,4-triazol-3-yl]amino]-benzenesulfonamide]
> 100000 nM | 305 nM | Cc1cc(C)c(C(=O)n2nc(Nc3ccc(S(N)(=O)=O)cc3)nc2N)c(C)c1 [Cpd 11, 4-[[5-amino-1-(2,4,6-trimethylbenzoyl)-1H-1,2,4-triazol-3-yl]amino]-benzenesulfonamide]
532 nM | 535 nM | Nc1nc(Nc2ccc(S(=O)(=O)N3CCCCC3)cc2)nn1C(=O)c1c(F)cccc1F [Cpd 13, 1-(2,6-difluorobenzoyl)-N^3-[4-(1-piperidinylsulfonyl)phenyl]-1H-1,2,4-triazole-3,5-diamine]
58 nM | 67 nM | CCOc1ccsc1C(=O)n1nc(Nc2ccc(S(N)(=O)=O)cc2)nc1N [Cpd 18, 4-[[5-amino-1-[(3-ethoxy-2-thienyl)carbonyl]-1H-1,2,4-triazol-3-yl]amino]-benzenesulfonamide]
291 nM | 33.9 nM | CC(=O)Nc1ccsc1C(=O)n1nc(Nc2ccc(S(N)(=O)=O)cc2)nc1N [Cpd 19, N-[2-[[5-amino-3-[[4-(aminosulfonyl)phenyl]amino]-1H-1,2,4-triazol-1-yl]carbonyl]-3-thienyl]-acetamide]
31 nM | 4.4 nM | Cc1ccc(C(=O)n2nc(Nc3ccc(S(N)(=O)=O)cc3)nc2N)s1 [Cpd 20, 4-[[5-amino-1-[(5-methyl-2-thienyl)carbonyl]-1H-1,2,4-triazol-3-yl]amino]-benzenesulfonamide]
23 nM | 8.8 nM | Nc1nc(Nc2ccc(S(N)(=O)=O)cc2)nn1C(=O)c1ccc(Br)s1 [Cpd 21, 4-[[5-amino-1-[(5-bromo-2-thienyl)carbonyl]-1H-1,2,4-triazol-3-yl]amino]-benzenesulfonamide]
